In publication PMC8388125, “Kinetic and Structural Characterization of the Self-Labeling Protein Tags HaloTag7, SNAP-tag, and CLIP-tag” (Biochemistry, 2021):
Residue numbers refer to the chain shown, from its start.

Assays:
[1] = biological target: T1, HT7^D106A (Rhodococcus sp., UniProt P59336, A155T/A167V/A224E/C128F/C176G/D106A/D78G/E160K/E257K/G292T/H272N/K175M/K195N/L47V/L88M/N227D/P291S/S2A/S58T/T264A/V172T/Y273L/Y87F); test: Affinity of HT7 for methyl-amide fluorophores by fluorescence polarization; format: binding
T1 construct: made in house; host or cells: E. coli BL21(DE3)-pLysS
T1 sequence (P59336 other isoform, or with tags, fused parts or gaps with the stated changes): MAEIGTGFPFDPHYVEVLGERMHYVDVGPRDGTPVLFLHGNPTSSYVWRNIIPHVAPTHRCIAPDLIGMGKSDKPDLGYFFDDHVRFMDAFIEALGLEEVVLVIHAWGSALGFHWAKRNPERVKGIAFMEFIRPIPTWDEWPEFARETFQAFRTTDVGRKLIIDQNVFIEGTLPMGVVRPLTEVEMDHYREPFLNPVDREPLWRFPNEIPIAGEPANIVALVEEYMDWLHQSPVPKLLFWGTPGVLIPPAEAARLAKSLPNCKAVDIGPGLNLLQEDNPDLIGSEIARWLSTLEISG
Description: Binding affinities of HT7 for methyl-amide fluorophores were determined by fluorescence polarization in a manner analogous to that of CA substrates described above with the following changes. Fluorescent substrates were used at a final concentration of 50 nM, and measurements were performed at room temperature.
(§1) Free binding energies were calculated from Kd values according to eq 4: [drawing 4] 4 where ΔG is the free binding energy, R is the universal gas constant, T is the temperature, and Kd is the dissociation constant.

[2] = biological target: T2, SNAP^C145A (Homo sapiens, UniProt P16455, A127T/A154D/C145A/C150Q/C62A/G131K/G132T/G153L/K125A/K32I/L33F/M134L/N157G/Q115S/Q116H/R128A/R135S/S151G/S152D/S159E); test: Affinity of SNAP^C145A for BG and CP fluorescent substrates by fluorescence polarization; format: binding; conditions: SNAP^C145A, fluorescence polarization, room temperature
T2 construct: made in house; host or cells: E. coli BL21(DE3)-pLysS
T2 sequence (P16455 1-182 K32I/L33F/C62A/Q115S/Q116H/K125A/A127T/R128A/G131K/G132T/M134L/R135S/C145A/C150Q/S151G/S152D/G153L/A154D/N157G/S159E limits assumed): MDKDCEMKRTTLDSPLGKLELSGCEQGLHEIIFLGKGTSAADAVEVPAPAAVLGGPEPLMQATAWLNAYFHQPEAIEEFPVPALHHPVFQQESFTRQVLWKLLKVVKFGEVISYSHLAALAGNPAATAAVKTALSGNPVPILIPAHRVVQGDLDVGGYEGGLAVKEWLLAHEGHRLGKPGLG
Description: Binding affinities of SNAP^C145A and SNAPf^C145A for BG-Alexa488, CP-Alexa488, BG-fluorescein, CP-fluorescein, BG-MAP555, BG-JF549, BG-TMR(6), BG-TMR(5), CP-TMR, BG-CPY(6), BG-CPY(5), CP-CPY, BG-SiR, CP-SiR, BG-JF646, BG-Atto565, BG-Atto590, BG-sulfo-Cy3, BG-Cy3, BG-sulfo-Cy5, and BG-Cy5 were determined by fluorescence polarization in a manner analogous to that for HT7 affinities for CA substrates described above with the following changes. Fluorescent substrates were titrated at a final concentration of 50 nM against protein concentrations ranging from 0 to 250 μM at room temperature using 0.1 g/L BSA and 1 mM DTT (SNAP-FP buffer). The FP value of each dye fully reacted with the native SNAP/SNAPf was used to improve fitting of the upper plateau of the curves by adding an extra data point at a protein concentration of 0.005 M.

[3] = biological target: T3, HaloTag7 (HT7) (Rhodococcus sp., UniProt P59336, A155T/A167V/A224E/C128F/C176G/D78G/E160K/E257K/G292T/H272N/K175M/K195N/L47V/L88M/N227D/P291S/S2A/S58T/T264A/V172T/Y273L/Y87F); test: HT7 competitive labeling kinetics against CA-Alexa488; format: biochemical; conditions: HT7, nonfluorescent substrates, competition with CA-Alexa488, 37 °C
T3 construct: made in house; host or cells: E. coli BL21(DE3)-pLysS
T3 sequence (P59336 other isoform, or with tags, fused parts or gaps with the stated changes): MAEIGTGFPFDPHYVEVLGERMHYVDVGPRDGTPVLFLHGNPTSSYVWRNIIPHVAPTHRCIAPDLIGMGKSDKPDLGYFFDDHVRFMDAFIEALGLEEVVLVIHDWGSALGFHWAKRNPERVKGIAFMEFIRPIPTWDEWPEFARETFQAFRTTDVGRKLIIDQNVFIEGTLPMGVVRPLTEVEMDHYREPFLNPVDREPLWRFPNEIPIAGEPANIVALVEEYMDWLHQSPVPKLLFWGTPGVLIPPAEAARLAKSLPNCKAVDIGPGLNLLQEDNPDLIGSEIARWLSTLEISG
Description: Competitive kinetics were measured by recording FP over time using a microplate reader (Spark20M, Tecan). The final concentrations of CA-Alexa488 (50 nM) and HT7 protein (200 nM) remained constant with varying concentrations of nonfluorescent substrates (0–1 μM) in activity buffer supplemented with 0.5 g/L BSA. Assays were performed in black nonbinding flat bottom 96-well plates with a final reaction volume of 200 μL. Labeling reactions were started by adding the HT7 protein to wells containing CA-Alexa488 and nonfluorescent substrates using an electronic 96-channel pipettor (Integra Bioscience Corp., Hudson, NH). The FP of free CA-Alexa488 was measured to obtain a baseline.
Data were fitted to a simplified kinetic competition model (eqs 19 and 20) described by differential eqs 21–25 using DynaFit. The dead time of the measurements and baseline FP value were put in as fixed parameters. Standard deviations (normal distribution verified) and confidence intervals of fitted parameters were estimated with the Monte Carlo method with standard settings (N = 1000, 5% worst fits discarded). [drawing 19] 19 [drawing 20] 20 where P is the SLP protein, S is the fluorescent SLP substrate, I is the nonfluorescent SLP substrate (inhibitor), PS is the protein–fluorescent substrate conjugate, and PI is the protein–nonfluorescent substrate conjugate. [drawing 21] 21 [drawing 22] 22 [drawing 23] 23 [drawing 24] 24 [drawing 25] 25

[4] = biological target: T1, HT7^D106A; test: Affinity of HT7^D106A for CA-Ac via FP competition assay against CA-TMR; format: binding
Description: The binding affinity of HT7^D106A for CA-Ac was determined by a fluorescence polarization competition assay against CA-TMR. Therein, 5 μM protein and 50 nM CA-TMR were titrated against CA-Ac concentrations ranging from 80 μM to 10 mM in activity buffer supplemented with 0.5 g/L BSA. Assays were performed in low-volume nonbinding black 384-well plates (Corning Inc.) with a final volume of 20 μL using a microplate reader (Spark20M, Tecan). Obtained FP values were averaged and fitted to a four-parameter logistic curve (eq 3) to estimate the I50 value. The lower plateau was fixed to the measured FP value of the free dye to improve the fit. The dissociation constant of CA-Ac was calculated as described by Rossi and Taylor.[35] [drawing 3] 3 where FPmin is the fluorescence polarization of the free fluorophore (lower plateau), FPmax is the maximal fluorescence polarization of the fully bound fluorophore (upper plateau), I50 is the half-maximal effective concentration, and [ligand] is the ligand concentration.
as §1

[5] = biological target: T4, CLIPf (CLIP^E30R) (Homo sapiens, UniProt P16455, A121V/A127T/A154D/C150Q/C62A/E30R/G131N/G132T/G153S/K125A/K32I/L33F/M134L/M60I/N157P/Q115S/Q116H/R128A/R135D/S151G/S152D/S159L/Y114E); test: CLIPf labeling kinetics via microplate reader (FP over time); format: biochemical; conditions: plate reader
T4 construct: made in house; host or cells: E. coli BL21(DE3)-pLysS
T4 sequence (P16455 1-182 E30R/K32I/L33F/M60I/C62A/Y114E/Q115S/Q116H/A121V/K125A/A127T/R128A/G131N/G132T/M134L/R135D/C150Q/S151G/S152D/G153S/A154D/N157P/S159L limits assumed): T2 sequence (P16455 1-182 K32I/L33F/C62A/Q115S/Q116H/K125A/A127T/R128A/G131K/G132T/M134L/R135S/C145A/C150Q/S151G/S152D/G153L/A154D/N157G/S159E limits assumed) with E30R, M60I, Y114E, A121V, K131N, S135D, A145C, L153S, G157P, E159L
Description: (§2) Labeling kinetics of SNAP and CLIP substrates were measured by recording FP over time using a microplate reader in a manner analogous to that of HT7 labeling kinetics described above with the following changes. The fluorescent substrate concentration was fixed to 20 nM, and protein concentrations were varied from 15 to 900 nM. Measurements were performed in SNAP-FP buffer.
(§3) Kinetic data from microplate reader assays were fitted to a simplified kinetic model (eq 13) described by differential eqs 14–16 using DynaFit. The dead time of the measurements and baseline FP value were put in as fixed parameters. Standard deviations (normal distribution verified) and confidence intervals of fitted parameters were estimated with the Monte Carlo method with standard settings (N = 1000, 5% worst fits discarded). In the case of BG, CP, and BC kinetics, the substrate concentration was fitted by DynaFit to rule out quantification errors of the BG, CP, or BC fluorophores. Accurate fitting of the concentration was ensured by including conditions under which protein is limiting and no maximum FP value was reached.

[6] = biological target: T5, SNAP-tag (SNAP) (Homo sapiens, UniProt P16455, A127T/A154D/C150Q/C62A/G131K/G132T/G153L/K125A/K32I/L33F/M134L/N157G/Q115S/Q116H/R128A/R135S/S151G/S152D/S159E); test: SNAP labeling kinetics via microplate reader (FP over time); format: biochemical
T5 construct: made in house; host or cells: E. coli BL21(DE3)-pLysS
T5 sequence (P16455 1-182 K32I/L33F/C62A/Q115S/Q116H/K125A/A127T/R128A/G131K/G132T/M134L/R135S/C150Q/S151G/S152D/G153L/A154D/N157G/S159E limits assumed): T2 sequence (P16455 1-182 K32I/L33F/C62A/Q115S/Q116H/K125A/A127T/R128A/G131K/G132T/M134L/R135S/C145A/C150Q/S151G/S152D/G153L/A154D/N157G/S159E limits assumed) with A145C
Description: as §2, §3

[7] = biological target: T6, hAGT (human O^6-alkylguanine-DNA alkyltransferase) (Homo sapiens, UniProt P16455); test: hAGT labeling kinetics via microplate reader (FP over time); format: biochemical; conditions: hAGT vs CLIP
T6 construct: StrepTag-II (N); enterokinase cleavage site (N); His10 (C); made in house; host or cells: E. coli BL21(DE3)-pLysS
T6 sequence (P16455 1-207): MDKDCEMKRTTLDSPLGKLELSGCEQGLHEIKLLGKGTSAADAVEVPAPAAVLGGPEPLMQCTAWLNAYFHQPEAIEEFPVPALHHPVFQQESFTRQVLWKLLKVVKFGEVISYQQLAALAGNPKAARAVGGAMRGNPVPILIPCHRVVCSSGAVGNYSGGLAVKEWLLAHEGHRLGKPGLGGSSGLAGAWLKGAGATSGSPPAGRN
Description: as §2, §3

[8] = biological target: T7, CLIP-tag (CLIP) (Homo sapiens, UniProt P16455, A121V/A127T/A154D/C150Q/C62A/G131N/G132T/G153S/K125A/K32I/L33F/M134L/M60I/N157P/Q115S/Q116H/R128A/R135D/S151G/S152D/S159L/Y114E); test: CLIP labeling kinetics via microplate reader (FP over time); format: biochemical; conditions: CLIP, plate reader, kinetic model 1
T7 construct: made in house; host or cells: E. coli BL21(DE3)-pLysS
T7 sequence (P16455 1-182 K32I/L33F/M60I/C62A/Y114E/Q115S/Q116H/A121V/K125A/A127T/R128A/G131N/G132T/M134L/R135D/C150Q/S151G/S152D/G153S/A154D/N157P/S159L limits assumed): T2 sequence (P16455 1-182 K32I/L33F/C62A/Q115S/Q116H/K125A/A127T/R128A/G131K/G132T/M134L/R135S/C145A/C150Q/S151G/S152D/G153L/A154D/N157G/S159E limits assumed) with M60I, Y114E, A121V, K131N, S135D, A145C, L153S, G157P, E159L
Description: as §2, §3

## CNC(=O)c1ccc(C(=O)[O-])c(-c2c3ccc(=[N+](C)C)cc-3oc3cc(N(C)C)ccc23)c1 [meAm-TMR]
[1]; calculated from Kd
  free binding energy (ΔG): −16.7 kJ mol^–1
[1]; fluorescence polarization, room temperature
  Kd: 1510 µM
[2]
  Kd^C145A: no affinity could be measured

## CC(=O)NCCOCCOCCCCCCCl [CA-Ac, acetylated chloroalkane]
[3]
  kapp (value ± standard deviation): (1.53 ± 0.02) × 10^3 M^–1 s^–1
[4]
  Kd: 2620 µM
[4]; HT7^D106A, calculated from Kd
  free binding energy (ΔG): −15.3 kJ mol^–1

## CN(C)c1ccc2c(-c3cc(C(=O)NCc4ccc(COc5nccc(N)n5)cc4)ccc3C(=O)[O-])c3ccc(=[N+](C)C)cc-3oc2c1 [BC-TMR]
[5]
  kapp: (3.37 ± 0.01) × 10^4 M^–1 s^–1
[6]; SNAP cross-reactivity
  times slower reaction of SNAP than with BG-TMR: more than 1000 times
[6]; SNAP, plate reader, kinetic model 1
  kapp (value ± standard deviation): (3.20 ± 0.02) × 10^2 M^–1 s^–1
[7]
  times slower reaction with hAGT than with CLIP: 25000 times
[8]
  kapp (value ± standard deviation): (1.85 ± 0.01) × 10^4 M^–1 s^–1
